# Measured values as given in patent US20200368198A1, “METHODS FOR INCREASING FERTILITY” (NEWSOUTH INNOVATIONS PTY LIMITED, priority 2017, published 2020).
# Several values for one entry are separate records, joined by “and”; a condition that tells them apart may be missing. Identical values can stand only once.
# Legend:
# oocytes [1] = test: Meiotic progression (GVBD, PBE) of harvested oocytes, cisplatin with or without NMN; type: in vivo, mice; conditions: cisplatin and/or NMN
# Protocol: Once harvested from ovaries, oocytes were stored in IBMX media to prevent progression into meiosis. Once released from IBMX, meiotic progression was assessed by the proportions of oocytes achieving germinal vesicle breakdown (GVBD) for meiosis I, and polar body extrusion (PBE) for meiosis II, with results shown in FIGS. 7 and 8 and Tables 2 and 3.
# Again, as in Example 2 above, the oocytes which were harvested from these studies were allowed to progress down meiosis, in order to assess meiotic progression rates (FIGS. 16 and 17 and Table 7 and 8).
# oocytes [2] = test: Spindle structure staining of oocytes from aged NMN treated mice; type: in vivo
# Description: (§1) To determine the impact of NMN on spindle assembly, oocytes from C57BL6 mice were next stained for spindle structure (FIG. 3F).
# As with other sirtuins, SIRT2 is critically dependent for its activity on levels of its enzymatic co-factor NAD^+, which naturally declines with old age. We hypothesized that increasing NAD^+ availability during old age could restore SIRT2 activity, and recapitulate the improvements in fertility observed with old age during SIRT2 over-expression. To test this, non-genetically modified C57BL6 female mice were treated with the NAD^+ precursor nicotinamide mononucleotide (NMN), as in the Examples above. Mice were treated at 15 months of age, when mice normally experience ovarian failure (FIG. 34). Three weeks later, oocytes were harvested, and analysed for spindle structure (FIG. 35).
# C57BL6 females [3] = test: Reversal design: primordial follicle counts in ovarian histology sections; type: in vivo, mice; conditions: doxorubicin 10 mg/kg i.p., NMN in drinking water started four weeks later for 4 weeks; per mouse
# Description: (§2) Ovaries were dissected from freshly euthanased animals, and preserved in 10% neutral buffered formalin for 24 hr, followed by 70% ethanol, until embedding in paraffin blocks. Blocks were sectioned on a microtome and subjected to haematoxylin and eosin (H&E) staining. Primordial follicles were manually counted by a blinded investigator.
# Next, we decided to investigate whether NMN treatment delivered some time following chemotherapy treatment could actively reverse chemotherapy induced infertility. […] Four weeks later, they received NMN in their drinking water, for another 4 weeks, prior to being euthanased for either oocyte studies or ovarian histological analysis. The rationale of this experimental design is to investigate whether NMN has the ability to induce regeneration of the ovary. According to the standard dogma of reproductive biology, mammals are born with a set number of follicles which are slowly released as oocytes over the course of a lifetime, with the ovaries incapable of regenerating new follicles.
# SwissTacAusb female mice = test: Oocyte yield in high fat fed mice treated with NMN; type: in vivo; conditions: SwissTacAusb females, 3 months high fat feeding; NMN versus untreated high fat fed littermates
# Description: Systemic treatment with the NAD^+ precursor nicotinamide mononucleotide (NMN) increases intracellular NAD^+ levels, and we hypothesised that NMN treatment could restore the activity of SIRT2 to stabilise BubR1 and maintain oocyte reserve and competence into later ages. We obtained 15 month-old female mice, an age at which this species is functionally infertile, and treated them with NMN through addition to drinking water (2 g/L) for 4 weeks. Animals were super-ovulated, and oocyte yield was assessed. […] Obesity is a major risk factor for female infertility, and to assess whether a similar mechanism was at work, we subjected young SwissTacAusb female mice to 3 months of high fat feeding, followed by NMN treatment for 4 weeks.
# [4] = test system: offspring of C57BL6 females; test: Offspring of NMN treated females: development and glucose tolerance; type: in vivo, mice; conditions: offspring from NMN treated versus untreated females
# Description: FIG. 5. Offspring from NMN treated females, or non-NMN treated females, were maintained on a chow diet or subjected to feeding of a high fat diet (HFD) from 8 weeks of age. A) is a graph of body weights of animals until 23 weeks of age. B) is a graph of fat mass of animals after 7 weeks of HFD feeding. C) is a graph of glucose tolerance test in animals at 7 weeks after chow or HFD feeding (2 g/kg, 6 hr fast). D) is a graph of area under the curve for glucose tolerance tests. Each group represents offspring from at least 7 different females. Error bars are SD.
# To determine whether NMN treatment could improve overall, functional fertility, we conducted a breeding trial in C57BL6 mice. Both pregnancy success rates and litter size (FIG. 4A) were improved in animals that received NMN, further confirming the importance of this mechanism to female fertility. Offspring from females that received NMN treatment developed at a similar rate to offspring from untreated females, even after challenging with high fat feeding (FIG. 5A and 5B).
# ovaries = test: Histological analysis of ovaries from NMN treated females; type: in vivo, mice
# Description: as §2, §1
# C57BL6 female mice = test: Mating trial after doxorubicin with or without NMN co-treatment; type: in vivo; conditions: for Number of mating rounds required to achieve pregnancy: the values are: cumulative % of females pregnant by round
# Protocol: Following oocyte counting and analysis of oocyte meiotic progression, as well as a separate cohort of animals for histological ovarian analysis, a separate cohort of animals were treated as indicated, and mated with stud males of proven track record, to assess the ability of animals to deliver live births following chemotherapy treatment in the presence of absence of NMN co-treatment.
# C57BL6 females [5] = test: Reversal design: oocyte yield, cisplatin followed by NMN 4 weeks later; type: in vivo, mice; conditions: cisplatin 5 mg/kg i.p., per mouse
# Protocol: To assess oocyte yield, and mice were hormonally stimulated to superovulated by intraperitoneal injection with 7.5 IU/mL of Pregnant Mare's Serum Gonadotropin (PMSG) (Folligon; Intervet, Boxmeer, Holland) to stimulate follicular growth. After 44-46 hours, ovaries were collected in HEPES-buffered minimum essential medium (aMEM; Gibco Life Technologies, Grand Island, N.Y.) supplemented with 50 µM of 3-isobuty-1-methylxanthine (IBMX) (Sigma aldrich, NSW, AU) (M2 medium) to maintain meitotic arrest at germinal vesicle stage. Cumulus oocyte complexes (COCs) were isolated from preovulatory follicles using a 27-gauge needle and collected using flame-pulled borosilicate Pasteur pipettes in M2 medium supplemented with 3 mg/ml bovine serum albumin (BSA; Sigma Aldrich, St. Louis, Mo.) and 100 μM IBMX (Sigma Aldrich). Cumulus oocyte complexes (COCs) were mechanically denuded of cumulus cells by pipetting, and the denuded oocytes were transferred to another dish containing a drop of fresh M2-medium plus IBMX on heat block with 37° C. with lid to protect oocytes from light.
# Next, we decided to investigate whether NMN treatment delivered some time following chemotherapy treatment could actively reverse chemotherapy induced infertility. […]
structure (smiles),measurement,setting,value
"NC(=O)c1ccc[n+]([C@@H]2O[C@H](COP(=O)([O-])O)[C@@H](O)[C@H]2O)c1 [NMN, nicotinamide mononucleotide]",Proportion of harvested oocytes achieving germinal vesicle breakdown,oocytes [1]; 1 h after release from IBMX,45 % of total
same,Proportion of harvested oocytes achieving germinal vesicle breakdown,oocytes [1]; 2 h after release from IBMX,83 % of total
same,Proportion of harvested oocytes achieving polar body extrusion,oocytes [1]; 14 hr following completion of GVBD,48 % of total
same,Proportion of harvested oocytes achieving polar body extrusion,oocytes [1]; 16 hr following completion of GVBD,60 % of total
same,Proportion of harvested oocytes achieving polar body extrusion,oocytes [1]; 20 hr following completion of GVBD,91 % of total
same,Spindle structure in oocytes,"oocytes [2]; 15 month old C57BL6 females, NMN 3 weeks",reverse severe spindle defects
same,Spindle and chromosome arrangement in oocytes,"oocytes [2]; aged C57BL6 females, NMN 2 g/L drinking water, 4 weeks","bi-polar, barrel-shaped arrangement with well-aligned chromosomes"
same,Primordial follicle numbers in ovarian histology sections,C57BL6 females [3],108 and 86 and 94 and 78
same,Oocyte yield in high fat fed mice,SwissTacAusb female mice,higher oocyte yield
same,Glucose tolerance tests in offspring,[4],no change
same,"Oogonial reserve, histological analysis of ovaries",ovaries,improved oogonial reserve
same,Number of mating rounds required to achieve pregnancy,C57BL6 female mice; Round 0,0%
same,Number of mating rounds required to achieve pregnancy,C57BL6 female mice; Round 1,60%
same,Number of mating rounds required to achieve pregnancy,C57BL6 female mice; Round 2,80%
same,Number of mating rounds required to achieve pregnancy,C57BL6 female mice; Round 3,88%
same,Body weight of pups born to females receiving NMN,C57BL6 female mice; day 12 of age,no difference in body weight
same,Oocyte yield,C57BL6 females [5],restoration of oocyte number and 9 and 17 and 10
